Measured values published in patent US4605785A, “1,1-diphenylpropanol derivatives, process for their preparation and pharmaceutical compositions containing them” (Richter Gedeon Vegyeszeti Gyar RT, priority 1982, dated 1986).

Experiments:
[1] = tested on: hexabarbital oxidase; assay: Hexabarbital sleeping time (hexabarbital oxidase activity in vivo); set-up: species or system Hann.-Wistar rats; details: hexabarbital sodium 60 mg./kg. i.v., x ± S.E.; for Hexabarbital sleeping time in %-age of the control, 1 h: 1 h after single 40 mg./kg. oral dose; for Hexabarbital sleeping time in %-age of the control, 24 h: 24 h after single 40 mg./kg. oral dose
Description: The enzyme inducing activity was tested by the following methods: The change of hexabarbital oxidase activity was measured on Hann.-Wistar rats weighing 50-60 g. which were administered single 40 mg./kg. doses of the test compounds orally. One and 24 hours after treatment the animals were anaesthetized by a 60 mg./kg. i.v. dose of hexabarbital sodium, and the sleeping time, i.e. the time between the loss of righting reflex and full awakeness was measured (Noordhoex J.: Eur. J. Pharmacol., 3, 242, 1968). As a reference compound phenobarbital was used. The average of the groups and the standard error were determined. The results are given in Table 1, expressed in % of the control.

[2] = Relative weight of liver after treatment; assay type: in vivo, Female Hann.-Wistar rats; details: 24 h after single 40 mg/kg. oral dose; control 4.3 ± 0.17 = 100 ± 3.9%
Description: (§1) To evaluate the enzyme inducing activity of the compounds of formula (I) the activity of the polysubstrate monooxygenase enzyme system of the liver, after treatment with placebo and the test compounds, respectively, was also tested. Female Hann.-Wistar rats weighing 50-60 g. each were administered a single 40 mg/kg. dose of the test compounds orally. 24 hours after treatment the animals were decapitated and their livers were eliminated. […] The cytochrome P-450 concentration was determined on the basis of the carbon monoxide differential spectrum of a reduced microsome suspension (Omura T. et al.: J. Biol. Chem. 239, 2370 (1964)). The quantity of cytochrome b-5 was determined from a NaDH differential spectrum (Raw J. et al.: J. Biol. Chem., 234, 1867 (1959)); the activity of NADPH: ferricytochrome C (P-450) reductase (E.C. 1.6.2.4) was measured by the method of Williams C. […] The activity of the aniline hydroxylase from the velocity of the p-amino-phenol formation was determined by the method of R. S. et al.: Toxicol. […] Pharmacol., 22, 50 (1972), while the aminopyrine-demethylase activity was measured by the quantity of the formaldehyde formed, using the method developed by Gourlay G. K. et al.: Biochem. Pharmacol., 27, 965 (1978). The protein content was determined using the method by Lowry O. H. et al.: J. Biochem., 193, 265 (1951). […]

[3] = Microsomal protein content of liver after treatment (Lowry); assay type: in vivo, Female Hann.-Wistar rats; details: 24 h after single 40 mg/kg. oral dose; control 29.3 ± 1.01 = 100 ± 3.4%
Description: as §1

[4] = tested on: cytochrome b-5; assay: Quantity of cytochrome b-5 in liver after treatment; assay type: in vivo, Female Hann.-Wistar rats; details: 24 h after single 40 mg/kg. oral dose; control 8.6 ± 0.43 = 100 ± 5.0%
Description: as §1

[5] = tested on: cytochrome P-450; assay: Cytochrome P-450 concentration in liver after treatment; assay type: in vivo, Female Hann.-Wistar rats; details: 24 h after single 40 mg/kg. oral dose; control 12.8 ± 0.63 = 100 ± 4.9%
Description: as §1

[6] = tested on: NADPH: ferricytochrome C (P-450) reductase (E.C. 1.6.2.4); assay: Activity of NADPH: ferricytochrome C (P-450) reductase in liver after treatment; assay type: in vivo, Female Hann.-Wistar rats; details: 24 h after single 40 mg/kg. oral dose; control 4868 ± 296.2 = 100 ± 6.1%
Description: as §1

[7] = tested on: aniline hydroxylase; assay: Aniline hydroxylase activity in liver after treatment; assay type: in vivo, Female Hann.-Wistar rats; details: 24 h after single 40 mg/kg. oral dose; control 20.3 ± 0.88 = 100 ± 4.3%
Description: as §1

[8] = tested on: aminopyrine demethylase; assay: Aminopyrine demethylase activity in liver after treatment; assay type: in vivo, Female Hann.-Wistar rats; details: 24 h after single 40 mg/kg. oral dose; control 254.8 ± 7.47 = 100 ± 2.9%
Description: as §1

[9] = tested on: Hann.-Wistar rats; assay: Acute toxicity, oral; assay type: in vivo; details: 500 mg./kg. p.o. single dose; 14 days observation
Description: (§2) The acute toxicity of the compounds of formula (I) was determined on Hann.-Wistar rats selected from both sexes, weighing 160-180 g. each. The test compounds were administered in a single 500 mg./kg. oral dose. […] The results are set forth in the following Table 3, in which the percentage of the dead animals is indicated.

[10] = Acute toxicity, oral; assay type: in vivo, Hann.-Wistar rats; details: rat, in vivo, po
Description: as §2

[11] = CNS activity (electroshock, metrazole, thiosemicarbazide, strichnine, nicotine spasm, rotating rod, physostigmine lethality, yohimbine potentiation, analgesia); details: oral, already at 40 mg./kg.; in words
Description: The compounds of the formula (I) and phenobarbital were administered orally, in a dose of 40 mg./kg. and 80 mg./kg.

Structure (SMILES) | Hexabarbital sleeping time in %-age of the control, 1 h [1] | Hexabarbital sleeping time in %-age of the control, 24 h [1] | relative weight of liver (g./100 g. of body weight), % of the control [2] | microsomal protein (mg./g. of liver), % of the control [3] | cytochrome b-5 (nmoles/g. of liver), % of the control [4] | cytochrome P-450 (nmoles/g. of liver), % of the control [5] | C(P-450) reductase (nmoles/g. of liver/min.), % of the control [6] | aniline hydroxylase (nmoles/g. of liver/min.), % of the control [7] | aminopyrine demethylase (nmoles/g. of liver/min.), % of the control [8] | Dead animals (%) [9] | mortality at 336 h ([10]; 500 mg./kg. p.o. single dose, 14 days observation, read-out: Dead animals (%)) | LD50 ([10]; footnote to Table 3) | CNS activity (anticonvulsive, muscle coordinating, sedative) [11]
CCC(O)(c1ccc(F)cc1)c1ccccc1OCc1ccccc1 (stereo not shown) [A, 1-(4-fluorophenyl)-1-(2-benzyloxyphenyl)-propane-1-ol] | 95 ± 20.2 % of the control | 46 ± 3.5 % of the control | 109 ± 2.5% | 109 ± 3.8% | 124 ± 3.8% | 170 ± 8.8% | 155 ± 6.9% | 168 ± 8.9% | 150 ± 11.1% | .phi. |  |  | 
CCC(O)(c1cc(C)ccc1C)c1ccccc1OCc1ccccc1 (stereo not shown) [B, 1-(2,5-dimethylphenyl)-1-(2-benzyloxyphenyl)-propane-1-ol] | 119 ± 7.7 % of the control | 58 ± 8.0 % of the control |  |  |  |  |  |  |  | .phi. |  |  | 
CCN(CC)C(=O)COc1ccc(C(O)(CC)c2cccc(C(F)(F)F)c2)cc1 (stereo not shown) [C, 1-(3-trifluoromethylphenyl)-1-[4-(diethylcarbamoylmethoxy)-phenyl]-propane-1-ol] | 170 ± 10.0 % of the control | 44 ± 2.0 % of the control |  |  |  |  |  |  |  | .phi. |  |  | 
CCN(CC)C(=O)COc1ccccc1C(O)(CC)c1cccc(Cl)c1 (stereo not shown) [Compound D, 1-(3-chlorophenyl)-1-[2-(diethylcarbamoylmethoxy)-phenyl]-propane-1-ol] | 139 ± 14.4 % of the control | 50 ± 3.0 % of the control | 107 ± 4.4% | 120 ± 6.7% | 122 ± 6.3% | 199 ± 17.7% | 144 ± 11.9% | 189 ± 12.3% | 129 ± 6.0% | .phi. |  |  | 
CCOC(=O)COc1ccccc1C(O)(CC)c1cccc(Cl)c1 (stereo not shown) [E, 1-(3-chlorophenyl)-1-[2-(ethoxycarbonylmethoxy)-phenyl]propane-1-ol] | 117 ± 1.1 % of the control | 58 ± 2.4 % of the control |  |  |  |  |  |  |  | .phi. |  |  | 
CCC1(c2ccccc2)C(=O)NC(=O)NC1=O [phenobarbital, reference compound] | 250 ± 15.8 % of the control | 60 ± 7.3 % of the control |  |  |  |  |  |  |  |  | 100% | 254 mg/kg | significant anticonvulsive muscle coordinating and sedative effect
